Where two headings read alike, the source gives them in different places.
What was measured:
MCF7 cells [1] = test: Metabolic flux analysis (Seahorse XFe96, OCR/ECAR), MCF7; type: cell-based, Human; conditions: for ECAR levels / basal and maximal OCR, ATP production: adherent MCF7; for basal and maximal OCR, ATP production: 16 hours, versus vehicle-alone control
Procedure: (§1) FIGS. 4A-4D show the metabolic flux analysis results in MCF7 cells, FIGS. 5A-5D show the metabolic flux analysis results in MDA-MB-231 cells, and FIGS. 6A-6D show the metabolic flux analysis results in MDA-MB-468 cells.
(§2) In addition to metabolic flux analysis, glycolytic function was analyzed at different concentrations of MTDR. This included extracellular acidification rate (ECAR) measurements, glycolysis, glycolytic capacity, and glycolytic reserve. FIGS. 7A-7D show the results of glycolytic function in MCF7 cells, including ECAR, glycolysis, glycolytic capacity, and glycolytic reserve, respectively. FIGS. 8A-8D show the results of glycolytic function in MDA-MB-231 cells, including ECAR, glycolysis, glycolytic capacity, and glycolytic reserve, respectively. FIGS. 9A-9D show the results of glycolytic function in MDA-MB-468 cells, including ECAR, glycolysis, glycolytic capacity, and glycolytic reserve, respectively.
To examine the effects of HITC and DDI on mitochondrial respiration and aerobic glycolysis, adherent MCF7 were treated with each compound, and then OCR and ECAR were measured. […] After treatment, the mitochondrial oxygen consumption rate (OCR) was measured using the Seahorse XFe96 analyzer. Data is expressed as percentage of OCR versus control. All data was normalized for cell number. Statistical analysis was conducted using one-way ANOVA.
(§3) Metabolic Flux Analysis: Extracellular acidification rates and oxygen consumption rates were analyzed using the Seahorse XFe96 analyzer (Agilent/Seahorse Bioscience, USA). Cells were maintained in DMEM supplemented with 10% FBS (fetal bovine serum), 2 mM GlutaMAX, and 1% Pen-Strep. Forty-thousand breast cancer cells were seeded per well, into XFe96-well cell culture plates, and incubated at 37° C. in a 5% CO2 humidified atmosphere. After 24-48 hours, MCF7 cells were washed in pre-warmed XF assay media, as previously described. ECAR and OCR measurements were normalized for cell protein content, by the SRB colorimetric assay. Data sets were analyzed using XFe96 software and Excel software.

MCF7 cells [2] = test: 3D-mammosphere formation assay, MCF7; type: cell-based, Human
From the text: (§4) In order to assess the effects of MTDR on CSC propagation, the mammosphere assay was used as a functional readout of “stemness” and 3D anchorage-independent growth. As CSCs are highly-resistant to many types of cell stress, they can undergo anchorage-independent propagation, under low-attachment conditions. […] These “mammospheres” are highly enriched in CSCs and progenitor-like cells, and highly resemble the morula stage of embryonic development, a solid ball of cells without a hollow lumen. Under these culture conditions of non-attachment, the majority of epithelioid cancer cells die, via an unusual form of apoptosis, known as anoikis.
(§5) As a consequence, the growth of 3D spheroids provides functional culture conditions to select for a population of epithelioid CSCs, with EMT properties. As such this provides an ideal assay for identifying small molecules that can target the anchorage-independent growth of CSCs.
(§6) 3D-Mammosphere Formation Assay: A single cell suspension was prepared using enzymatic (1× Trypsin-EDTA, Sigma Aldrich, cat. #T3924), and manual disaggregation (25 gauge needle). Five thousand cells were plated with in mammosphere medium (DMEM-F12/B27/20 ng/ml EGF/PenStrep), under non-adherent conditions, in six wells plates coated with 2-hydroxyethylmethacrylate (poly-HEMA, Sigma, cat. #P3932). […]

[3] = in vivo; cited from earlier work
MDA-MB-231 cells [4] = conditions: MDA-MB-231 mammosphere formation
From the text: as §4, §5, §6

MDA-MB-468 cells [5] = conditions: read-out: IC-50, 3D sphere formation
From the text: as §4, §5, §6

MDA-MB-231 cells [6] = conditions: MDA-MB-231 monolayer
Procedure: as §1, §2, §3

MDA-MB-468 cells [7] = conditions: MDA-MB-468 monolayer
Procedure: as §1, §2, §3

MCF7 cells [8] = conditions: read-out: IC-50, cell viability; MCF7 monolayer; Hoechst 33342; 1 nM to 1 μM; FIG. 10
Procedure: (§7) A Hoechst-based viability assay was used to characterize the selectivity of MTDR for the preferential targeting of cancer cells. Briefly, MCF7, MDA-MB-231 and MDA-MB-468 cell monolayers were treated with MTDR, at concentrations ranging from 1 nM to 1 μM, for a period of one day. Cell viability was assessed using Hoechst 33342, a nuclear dye that stains DNA in live cells. The viability of normal human fibroblasts (hTERT-BJ1) treated with MTDR was also assessed in parallel. Quantitation was performed with a plate-reader.
(§8) MCF7, MDA-MB-231 and MDA-MB-468 cell monolayers were treated with MTDR for a period of 72 hours, and viability was assessed using Hoechst 33342, a nuclear dye that stains DNA in live cells. Effects of MTDR on the viability in normal human fibroblasts (hTERT-BJ1) were assessed in parallel.

MDA-MB-231 cells [9] = conditions: read-out: IC-50, cell viability; MDA-MB-231 monolayer; Hoechst 33342; 1 nM to 1 μM; FIG. 10
Procedure: as §7, §8

MDA-MB-468 cells [10] = conditions: read-out: IC-50, cell viability; MDA-MB-468 monolayer; Hoechst 33342; 1 nM to 1 μM; FIG. 10
Procedure: as §7, §8

[11] = test system: normal human fibroblasts (hTERT-BJ1); conditions: for IC50: hTERT-BJ1, Hoechst 33342
Procedure: as §7, §8

CCN1/C(=C/C=C/C=C/c2ccc3ccccc3[n+]2CC)C=Cc2ccccc21 [DDI]
ECAR levels (MCF7 cells [1]): did not affect | basal and maximal OCR, ATP production (MCF7 cells [1]): did not affect

CN1\C(=C/C=C/C=C/C=C/C2=[N+](C)c3ccccc3C2(C)C)C(C)(C)c2ccccc21 [HITC]
ECAR levels (MCF7 cells [1]): increased significantly, at 500 and 1000 nM | basal and maximal OCR, ATP production (MCF7 cells [1]): significantly inhibited

CCCN1/C(=C/C=C2\CCCC(/C=C/C3=[N+](CCC)c4ccccc4C3(C)C)=C2Cl)C(C)(C)c2ccccc21 [IR-780]
concentrations with significant inhibition of CSC propagation (3D-mammosphere formation) (MCF7 cells [2]; non-adherent MCF7, 1, 50, 100, 500, 1000 nM, five days): not effective | half-life in serum [3]: minutes to hour

CN1C(=CC=CC=CC2=[N+](Cc3ccc(CCl)cc3)c3ccccc3C2(C)C)C(C)(C)c2ccccc21.[Cl-] [MTDR, 1-{4-[(chloromethyl)phenyl]methyl}-3,3-dimethyl-2-[5-(1,3,3-trimethyl-1,3-dihydro-2H-indol-2-ylidene)penta-1,3-dien-1-yl]-3H-indolium chloride]
IC50 (MCF7 cells [2]; MCF7, MTDR 1 nM to 1,000 nM, 5 days, read-out: IC-50, 3D anchorage-independent growth (mammosphere formation)): < 100 nM | concentrations inhibiting anchorage-independent growth (MDA-MB-231 cells [4]): above 100 nM | IC50 (MDA-MB-468 cells [5]): ~50 nM | concentration from which near complete inhibition of mitochondrial function and ATP production (MCF7 cells [1]; MCF7 monolayer, OCR): ≥ 500 nM | effect on glycolysis (ECAR) (MCF7 cells [1]; MCF7 monolayer, up to 1 μM): no effect on glycolysis | concentration from which near complete inhibition of mitochondrial function and ATP production (MDA-MB-231 cells [6]; OCR): ≥ 500 nM | concentration from which mild-to-moderate inhibition of glycolysis (MDA-MB-231 cells [6]; no significant effect up to 100 nM): ≥ 500 nM | concentration from which near complete inhibition of mitochondrial function and ATP production (MDA-MB-468 cells [7]; OCR): ≥ 500 nM | effect on glycolysis (ECAR) (MDA-MB-468 cells [7]; up to 1 μM): no effect on glycolysis | IC50 (MCF7 cells [8]): 90.7 nM | IC50 (MDA-MB-231 cells [9]): 399 nM | IC50 (MDA-MB-468 cells [10]): 432 nM | IC50 ([11]; read-out: IC-50, cell viability, 1 nM to 1 μM, FIG. 10): 468 nM | IC50 ([11]; read-out: IC-50, normal cell viability, 72 hours): 1000 nM | potency and selectivity for breast cancer cells relative to normal fibroblasts ([11]; viability, 72 hours): 10 times

Source: US20220249438A1, “CARBOCYANINE COMPOUNDS FOR TARGETING MITOCHONDRIA AND ERADICATING CANCER STEM CELLS” (LUNELLA BIOTECH, INC., priority 2019, published 2022)
